For orientation: pEC50 means −log10 of the EC50, conventionally taken in molar units.

pEC50: −log10 of the molar value.

One assay concerns the target T1, Rat mGlu3 (Rattus norvegicus, UniProt P31422).
T1 construct: expressed in transfected cells; host or cells: HEK-293 co-expressing GIRK channels
Description: mGlu receptor in vitro assay (thallium flux through GIRK channels / calcium assay), rat mGlu3. The format is cell-based. The note with it: PAM potency with EC20 glutamate. The method, then: (§1) Human Embryonic Kidney (HEK-293) cell lines co-expressing rat mGlu receptors 2, 3, 4, 6, 7 or 8 and G protein-coupled inwardly-rectifying potassium (GIRK) channels were grown in Growth Media containing 45% DMEM, 45% F-12, 10% FBS, 20 mM HEPES, 2 mM L-glutamine, antibiotic/antimycotic, non-essential amino acids, 700 μg/mL G418, and 0.6 μg/ml puromycin at 37° C. in the presence of 5% CO2. […] All cell culture reagents were purchased from Invitrogen Corp. (Carlsbad, CA) unless otherwise noted. Calcium assays were used to assess activity of compounds at mGlu1 and mGlu5, as previously described in Engers et al (J. Med. Chem. 2009, 52, 4115-4118). Calcium assays at mGlu3 were performed as described for mGlu5 with the exception that TREx293 mGlu3 Gα15 cells were treated with tetracycline at 20 ng/mL for 20 h prior to assay.
(§2) Compound activity at the group II (mGlu2 and mGlu3) and group III (mGlu4, mGlu6, mGlu7, and mGlu8) was assessed using thallium flux through GIRK channels, a method that has been described in detail. Briefly, cells were plated into 384-well, black-walled, clear-bottomed poly-D-lysine-coated plates at a density of 15,000 cells/20 μL/well in DMEM containing 10% dialyzed FBS, 20 mM HEPES, and 100 units/mL penicillin/streptomycin (assay media). Plated cells were incubated overnight at 37° C. in the presence of 5% CO2. The following day, the medium was exchanged from the cells to assay buffer [Hanks' balanced salt solution (Invitrogen) containing 20 mM HEPES, pH 7.3] using an ELX405 microplate washer (BioTek), leaving 20 μL/well, followed by the addition of 20 μL/well FluoZin2-AM (330 nM final concentration) indicator dye (Invitrogen; prepared as a stock in DMSO and mixed in a 1:1 ratio with Pluronic acid F-127) in assay buffer. Cells were incubated for 1 h at room temperature, and the dye exchanged to assay buffer using an ELX405, leaving 20 μL/well. Test compounds were diluted to 2 times their final desired concentration in assay buffer (0.3% DMSO final concentration). Agonists were diluted in thallium buffer [125 mM sodium bicarbonate (added fresh the morning of the experiment), 1 mM magnesium sulfate, 1.8 mM calcium sulfate, 5 mM glucose, 12 mM thallium sulfate, and 10 mM HEPES, pH 7.3] at 5 times the final concentration to be assayed. Cell plates and compound plates were loaded onto a kinetic imaging plate reader (FDSS 6000 or 7000; Hamamatsu Corporation, Bridgewater, NJ). Appropriate baseline readings were taken (10 images at 1 Hz; excitation, 470±20 nm; emission, 540±30 nm) and test compounds were added in a 20 μL volume and incubated for approximately 2.5 min before the addition of 10 μL of thallium buffer with or without agonist. After the addition of agonist, data were collected for approximately an additional 2.5 min. Data were analyzed using Excel (Microsoft Corp, Redmond, WA). The slope of the fluorescence increase beginning 5 s after thallium/agonist addition and ending 15 s after thallium/agonist addition was calculated, corrected to vehicle and maximal agonist control slope values, and plotted in using either XLfit (ID Business Solutions Ltd) or Prism software (GraphPad Software, San Diego, CA) to generate concentration-response curves. Potencies were calculated from fits using a four-point parameter logistic equation. For concentration-response curve experiments, compounds were serially diluted 1:3 into 10-point concentration response curves and were transferred to daughter plates using an Echo acoustic plate reformatter (Labcyte, Sunnyvale, CA). Test compounds were applied and followed by EC20 concentrations of glutamate.

The next assay deals with T2, Rat mGlu2 (Rattus norvegicus, UniProt P31421).
T2 construct: expressed in transfected cells; host or cells: HEK-293 co-expressing GIRK channels
T2 sequence (P31421 19-872): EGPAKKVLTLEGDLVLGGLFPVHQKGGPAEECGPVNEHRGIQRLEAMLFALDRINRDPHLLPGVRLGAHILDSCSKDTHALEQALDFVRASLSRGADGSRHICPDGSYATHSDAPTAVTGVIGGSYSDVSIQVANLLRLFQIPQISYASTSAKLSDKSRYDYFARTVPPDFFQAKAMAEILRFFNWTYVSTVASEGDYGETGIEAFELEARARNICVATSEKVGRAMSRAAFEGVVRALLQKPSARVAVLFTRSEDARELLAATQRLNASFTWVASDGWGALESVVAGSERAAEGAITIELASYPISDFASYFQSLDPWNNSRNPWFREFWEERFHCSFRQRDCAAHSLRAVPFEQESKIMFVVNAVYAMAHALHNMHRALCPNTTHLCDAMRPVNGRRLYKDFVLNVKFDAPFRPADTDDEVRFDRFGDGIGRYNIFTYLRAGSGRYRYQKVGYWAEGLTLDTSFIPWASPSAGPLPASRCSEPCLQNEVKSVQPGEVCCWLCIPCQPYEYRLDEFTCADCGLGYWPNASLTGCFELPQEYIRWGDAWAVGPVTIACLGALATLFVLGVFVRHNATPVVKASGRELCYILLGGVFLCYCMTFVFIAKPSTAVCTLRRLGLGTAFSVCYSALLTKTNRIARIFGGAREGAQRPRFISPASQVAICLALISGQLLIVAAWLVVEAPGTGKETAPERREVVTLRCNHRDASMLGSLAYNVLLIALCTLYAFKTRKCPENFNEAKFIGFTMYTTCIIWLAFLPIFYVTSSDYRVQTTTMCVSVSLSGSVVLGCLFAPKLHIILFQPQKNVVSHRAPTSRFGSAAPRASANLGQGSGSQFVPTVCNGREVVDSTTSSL
Description: mGlu receptor in vitro assay, thallium flux through GIRK channels, rat mGlu2. Type of assay: cell-based. The conditions noted are these: PAM potency with EC20 glutamate. The method, then:
as §1, §2

T1 sequence (P31422 23-879): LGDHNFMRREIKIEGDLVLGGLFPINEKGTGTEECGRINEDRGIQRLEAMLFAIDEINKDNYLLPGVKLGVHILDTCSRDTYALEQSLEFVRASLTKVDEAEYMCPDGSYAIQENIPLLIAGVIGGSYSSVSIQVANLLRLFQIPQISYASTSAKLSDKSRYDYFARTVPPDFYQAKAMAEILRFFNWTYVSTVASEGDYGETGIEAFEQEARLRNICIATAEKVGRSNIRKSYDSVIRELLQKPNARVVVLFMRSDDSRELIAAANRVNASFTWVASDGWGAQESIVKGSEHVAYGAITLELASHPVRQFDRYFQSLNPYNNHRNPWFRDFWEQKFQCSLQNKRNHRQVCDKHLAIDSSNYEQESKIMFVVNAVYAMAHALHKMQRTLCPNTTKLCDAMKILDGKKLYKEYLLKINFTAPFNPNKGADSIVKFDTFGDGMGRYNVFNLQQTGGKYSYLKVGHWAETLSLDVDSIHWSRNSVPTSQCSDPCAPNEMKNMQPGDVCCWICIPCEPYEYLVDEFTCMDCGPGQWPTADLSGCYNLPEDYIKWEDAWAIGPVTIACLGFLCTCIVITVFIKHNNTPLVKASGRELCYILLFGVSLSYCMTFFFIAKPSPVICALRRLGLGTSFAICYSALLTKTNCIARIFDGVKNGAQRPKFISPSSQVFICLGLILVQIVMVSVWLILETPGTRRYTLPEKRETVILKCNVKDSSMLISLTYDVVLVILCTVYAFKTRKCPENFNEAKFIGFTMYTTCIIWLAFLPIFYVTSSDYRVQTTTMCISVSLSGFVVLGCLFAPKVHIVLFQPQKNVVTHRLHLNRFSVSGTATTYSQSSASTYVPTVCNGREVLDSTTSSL

Consider `Cc1c(OCc2cnc(-c3cccc(C(=O)O)c3)cn2)ccc(C(=O)Cc2ccccc2)c1O` [compound 121, 3-(5-((3-Hydroxy-2-methyl-4-(2-phenylacetyl)phenoxy)methyl)pyrazin-2-yl)benzoic acid], for which the pEC50 on Rat mGlu3 was 6.23; on Rat mGlu2 it was 6.11.
Taken in the same sequence, the figures for `Cc1c(OCc2cnc(-c3cccc(C(=O)NS(C)(=O)=O)c3)cn2)ccc(C(=O)CC(C)(C)C)c1O` [compound 126, 3-(5-((4-(3,3-Dimethylbutanoyl)-3-hydroxy-2-methylphenoxy)methyl)pyrazin-2-yl)-N-(methylsulfonyl)benzamide] were 5.67 and less than 5.00.
Take `Cc1c(SCCCCOc2cccc(C(=O)O)c2)ccc(C(=O)CC(C)(C)C)c1O` [compound 83]: the pEC50 was 5.48 at Rat mGlu3 and 6.26 on Rat mGlu2.
For the molecule `Cc1c(OC/C=C/COc2ccc(C(=O)CC(C)(C)C)c(O)c2C)cccc1C(=O)O` [Example 21, 3-{(2E)-4-[4-(3,3-Dimethylbutanoyl)-3-hydroxy-2-methylphenoxy]but-2-enyloxy}-2-methylbenzoic acid], the negative logarithm of the EC50 (pEC50) is 7.14 on Rat mGlu3 and 7.42 on Rat mGlu2.
For the molecule `CCCCC(=O)c1ccc(OCCCCCOc2cccc(C(=O)O)c2C)c(C)c1O` [Example 49, 3-[5-(3Hydroxy-2-methyl-4-pentanoylphenoxy)pentyloxy]-2-methylbenzoic acid], the pEC50 was less than 5.00 on Rat mGlu3 and 6.37 on Rat mGlu2.
Taken in the same sequence, the figures for `CCCC(=O)c1ccc(OCC[S+]([O-])CCOc2cccc(C(=O)O)c2C)c(C)c1O` (stereo not shown) [Example 39, 3-(2-{[2-(4-Butanoyl-3-hydroxy-2-methylphenoxy)ethyl]sulfinyl}ethoxy)-2-methylbenzoic acid] were less than 4.52 and less than 5.00.
Taken in the same sequence, the figures for `Cc1c(OCc2ccnc(-c3cccc(C(=O)O)c3)n2)ccc(C(=O)CC(C)(C)C)c1O` [compound 114, 3-(4-((4-(3,3-Dimethylbutanoyl)-3-hydroxy-2-methylphenoxy)methyl)pyrimidin-2-yl)benzoic acid] were 6.59 and 6.41.
`Cc1c(OCc2cnc(-c3cccc(-c4nn[nH]n4)c3)cn2)ccc(C(=O)CC(C)(C)C)c1O` [compound 122, 1-(4-((5-(3-(2H-Tetrazol-5-yl)phenyl)pyrazin-2-yl)methoxy)-2-hydroxy-3-methylphenyl)-3,3-dimethylbutan-1-one]: the negative logarithm of the EC50 (pEC50) at Rat mGlu3 was 6.55; at Rat mGlu2 it was 6.27.
`Cc1c(OCc2cnc(-c3cccc(-c4noc(=O)[nH]4)c3)cn2)ccc(C(=O)CC(C)(C)C)c1O` [compound 124, 3-(3-(5-((4-(3,3-Dimethylbutanoyl)-3-hydroxy-2-methylphenoxy)methyl)pyrazin-2-yl)phenyl)-1,2,4-oxadiazol-5(4H)-one]: the results for the pEC50 at Rat mGlu3 and at Rat mGlu2 were 5.77 and 5.61, respectively.
With `Cc1c(OCc2cnc(-c3cccc(S(N)(=O)=O)c3)cn2)ccc(C(=O)CC(C)(C)C)c1O` [compound 117, 3-(5-((4-(3,3-Dimethylbutanoyl)-3-hydroxy-2-methylphenoxy)methyl)pyrazin-2-yl)benzenesulfonamide], the pEC50 on Rat mGlu3 and on Rat mGlu2 was less than 4.52 each time.
`Cc1c(OCCCCCOc2ccc(F)c(C(=O)O)c2)ccc(C(=O)CC(C)C)c1O` [Example 47, 2-Fluoro-5-{5-[3-hydroxy-2-methyl-4-(3-methylbutanoyl)phenoxy]pentyloxy}benzoic acid]: the pEC50 is 5.69 on Rat mGlu3 and 6.95 on Rat mGlu2.
As for `CCCC(=O)c1ccc(OCc2cnc(-c3ccc(C(=O)O)c(Cl)c3)cn2)c(C)c1O` [compound 107, 4-{5-[(4-Butanoyl-3-hydroxy-2-methylphenoxy)methyl]pyrazin-2-yl}-2-chlorobenzoic acid], the pEC50 is 5.67 at Rat mGlu3 and 6.60 on Rat mGlu2.
As to `COc1ccc(C(=O)O)cc1OCc1cccc(COc2ccc(C(=O)CC(C)(C)C)c(O)c2C)c1` [compound 90, 3-((3-((4-(3,3-Dimethylbutanoyl)-3-hydroxy-2-methylphenoxy)methyl)benzyl)oxy)-4-methoxybenzoic acid], the pEC50 was 6.03 at Rat mGlu3 and 6.49 on Rat mGlu2.
`CCCC(=O)c1ccc(OCCS(=O)(=O)CCOc2cccc(C(=O)O)c2C)c(C)c1O` [Example 38, 3-(2-{[2-(4-Butanoyl-3-hydroxy-2-methylphenoxy)ethyl]sulfonyl}ethoxy)-2-methylbenzoic acid]: the pEC50 at Rat mGlu3 was less than 4.52; at Rat mGlu2, less than 5.00.
`Cc1c(OCc2cncc(-c3cccc(C(=O)O)c3)n2)ccc(C(=O)CC(C)(C)C)c1O` [compound 112, 3-(6-((4-(3,3-Dimethylbutanoyl)-3-hydroxy-2-methylphenoxy)methyl)pyrazin-2-yl)benzoic acid]: the pEC50 on Rat mGlu3 was 6.55; at Rat mGlu2, 6.66.
Taken in the same sequence, the figures for `Cc1c(OCc2cnc(-c3cccc(NC(=O)NS(C)(=O)=O)c3)cn2)ccc(C(=O)CC(C)(C)C)c1O` [compound 89, N-((3-(5-((4-(3,3-Dimethylbutanoyl)-3-hydroxy-2-methylphenoxy)methyl)pyrazin-2-yl)phenyl)carbamoyl)methanesulfonamide] were 5.33 and 5.62.
In the case of `Cc1c(OCc2cnc(-c3cccc(C(=O)O)c3)cn2)ccc(C(=O)C2CC2)c1O` [compound 70, 3-(5-((4-(Cyclopropanecarbonyl)-3-hydroxy-2-methylphenoxy)methyl)pyrazin-2-yl)benzoic acid], the figures for the pEC50 at Rat mGlu3 and at Rat mGlu2 were 5.59 and 6.08, respectively.
Turning to `Cc1c(OCc2cnc(-c3cccc(C(=O)O)c3)cn2)ccc(C(=O)C(C)(C)C)c1O` [compound 110, 3-(5-((3-Hydroxy-2-methyl-4-pivaloylphenoxy)methyl)pyrazin-2-yl)benzoic acid], the pEC50 is 6.49 on Rat mGlu3 and 5.98 at Rat mGlu2.
Taken in the same sequence, the figures for `CCCC(=O)c1ccc(OCOc2cccc(C(=O)O)c2C)c(C)c1O` [compound 95, 3-[(4-Butanoyl-3-hydroxy-2-methylphenoxy)methoxy]-2-methylbenzoic acid] were less than 4.52 and 6.18.
Taken in the same sequence, the figures for `Cc1c(OCc2cccc(-c3cccc(S(N)(=O)=O)c3)c2)ccc(C(=O)CC(C)(C)C)c1O` [Example 163, 3′-((4-(3,3-Dimethylbutanoyl)-3-hydroxy-2-methylphenoxy)methyl)-[1,1′-biphenyl]-3-sulfonamide] were less than 4.52 and 5.87.
Consider `COc1ccc(C(=O)O)cc1OCCCCOc1ccc(C(O)CC(C)(C)C)c(O)c1C` (stereo not shown) [compound 96, 3-{4-[3-Hydroxy-4-(1-hydroxy-3,3-dimethylbutyl)-2-methylphenoxy]butoxy}-4-methoxybenzoic acid], for which the pEC50 at Rat mGlu3 was less than 5.00; on Rat mGlu2, 5.79.
Taken in the same sequence, the figures for `COc1ccc(NC(=O)NS(C)(=O)=O)cc1OCCCCOc1ccc(C(=O)CC(C)(C)C)c(O)c1C` [compound 87, N-((3-(4-(4-(3,3-dimethylbutanoyl)-3-hydroxy-2-methylphenoxy)butoxy)-4-methoxyphenyl)carbamoyl)methanesulfonamide] were 5.62 and 5.88.
Regarding `CCCC(=O)c1ccc(OCCS(=O)(=O)CCOc2ccc(C(=O)O)c(Cl)c2)c(C)c1O` [Example 37, 4-(2-{[2-(4-Butanoyl-3-hydroxy-2-methylphenoxy)ethyl]sulfonyl}ethoxy)-2-chlorobenzoic acid], the pEC50 on Rat mGlu3 is less than 4.52; at Rat mGlu2, less than 5.00.

Values taken from patent US20250179000A1 (Sanford Burnham Prebys Medical Discovery Institute, priority 2021, published 2025).
